Results on one compound are retold here after paper PMC7777204, “Locking mixed-lineage kinase domain-like protein in its auto-inhibited state prevents necroptosis” (Proceedings of the National Academy of Sciences of the …, 2020).

This assay relates to Jurkat FADD−/− cells. The assay is described as follows: Jurkat FADD−/− cytotox assay. In kind it is cell-based. The conditions noted are these: Homo sapiens, without huTNFα, Cell Titer Glo viability, read-out: Jurkat TOX IC50. The protocol: For the Jurkat FADD^−/− Necroptosis assay, compounds were serially diluted in 100% dimethyl sulfoxide (DMSO) (Sigma-Aldrich catalog no. 41641), and 250 nL was transferred to a sterile 384-well microtiter plate (PerkinElmer catalog no. 6007688) via Echo liquid handler (LABCYTE). Five thousand Jurkat FADD ^−/− cells (ATCC catalog no. CRL-2572) in 20 µL of modified Roswell Park Memorial Institute medium (Gibco catalog no. 10491), 10% fetal calf serum (Gibco catalog no. 100500), 1x Anti/Anti (Gibco catalog no. 15240-062), 1x L-Glutamax (Gibco catalog no. 35050-087), and 1% PenStrep (SIGMA catalog no. P4333) were seeded into each well of the prepared assay plate with compound. Cells and compounds were incubated for 30 min at 37 °C (humidified incubator with 5% CO2). After incubation, 5 µL of recombinant human TNFα (huTNFα) (Biotrend catalog no. cyt-223; 10 ng/mL final concentration [f.c.]) was added to the cells, followed by an incubation of 24 h at 37 °C. Following the incubation, the experimental plates were equilibrated to room temperature (30 min) before 25 µL of Cell Titer Glo Luminescent Cell Viability Assay System reagent (Promega catalog no. G7571) was added to the plate wells, incubated at room temperature for ∼10 min. After incubation, the samples were analyzed for luminescence by using an Envision reader (PerkinElmer).
MLKL antagonists were tested in cytotox assays by using Jurkat FADD^−/− and U937 cells according to the assay procedures described for the necroptosis assays, but without treatment with recombinant huTNFα and/or zVAD-fmk. High controls (100% CTL, no effect) were defined as cells treated with DMSO, and low controls (0% CTL) were defined as medium without cells (0% CTL, maximal effect).
All cellular assays were done for Cpd 1, Cpd 2, Cpd 3, Cpd 4, and Cpd 5 in duplicate and in quadruplet for NSA.
For orientation: In ATP-based viability assays light output follows the ATP content of the culture.

As a reminder, the IC50 is the concentration that gives 50% inhibition. As to `Cn1c(=O)c2c(nc(S(C)(=O)=O)n2C)n(CC#Cc2cccc(O)c2)c1=O` [Cpd 3], the IC50 was found to be 13.6 µM.
